Source: patent publication US20200282003A1, “MITOCHONDRIAL-TARGETED AN[…] AGAINST MECHANICAL VENTILATION-INDUCED DIAPHRAGM DYSFUNCTION AND SKELETAL MUSCLE ATROPHY” (Cornell University, priority 2010, published 2020)
Square brackets hold non-standard residues; d marks the D form. Peptide text beside a SMILES is read from it. Dmt = Cc1cc(O)cc(C)c1C[C@H](N)C(=O)O

What was measured:
[1] = system: several mammalian cell types; settings: energy-independent manner; cited from earlier work
[2] = mean ± SEM
Description: To analyze mitochondrial ROS emissions following MV-induced diaphragmatic oxidative stress and weakness, rats were randomly assigned to one of three experimental groups (n=12/group): (1) an acutely anesthetized control group; (2) a 12-hour MV group (MV); and 3) a 12-hour MV group treated with the mitochondrial-targeted antioxidant SS-31 (MVSS). Because of the large tissue requirement for our numerous dependent measures, six animals from each experimental group were used for the mitochondrial measures and the remaining six animals in each group were employed in all other biochemical assays.
Animals in the control group were acutely anesthetized with an intraperitoneal (IP) injection of sodium pentobarbital (60 mg/kg body weight). […] The mitochondrial-targeted antioxidant SS-31 was dissolved in saline and delivered in a bolus (loading) dose (3 mg/kg; subcutaneous injection) 15 min prior to initiation of MV. A constant intravenous infusion (0.05 mg/kg/hr) of SS-31 was maintained throughout MV.
All surgical procedures were performed using aseptic techniques. Animals in the MV groups were anesthetized with an IP injection of sodium pentobarbital (60 mg/kg body weight), tracheostomized, and mechanically ventilated with a pressure-controlled ventilator (Servo Ventilator 300, Siemens) for 12 hours with the following settings: upper airway pressure limit: 20 cm H2O, typical pressure generation above PEEP was 6-9 cm H2O, respiratory rate: 80 bpm; and PEEP: 1 cm H2O.
The carotid artery was cannulated to permit the continuous measurement of blood pressure and the collection of blood during the protocol. Arterial blood samples (100 μl per sample) were removed periodically and analyzed for arterial pO2, pCO2 and pH using an electronic blood-gas analyzer (GEM Premier 3000; Instrumentation Laboratory, Lexington, Mass.). Ventilator adjustments were made if arterial PCO2 exceeded 40 mm Hg. Arterial PO2 was maintained >60 mmHg throughout the experiment by increasing the FIO2 (22-26% oxygen).
A venous catheter was inserted into the jugular vein for continuous infusion of sodium pentobarbital (˜10 mg/kg/hr) and fluid replacement. Body temperature was maintained at 37° C. by use of a recirculating heating blanket and heart rate was monitored via a lead II electrocardiograph. Continuous care during the MV protocol included lubricating the eyes, expressing the bladder, removing airway mucus, rotating the animal, and passively moving the limbs. Animals also received an intramuscular injection of glycopyrrolate (0.18 mg/kg) every two hours during MV to reduce airway secretions.

[3] = rats at completion of 12 h MV with SS-31

For 2′,6′-Dmt-D-Arg-Phe-Lys-NH2 [SS-02], which “Penetration of the plasma membrane” value [1] is on record?
The value was “readily penetrates”.

Which results are given for Cc1cc(O)cc(C)c1C[C@H](NC(=O)[C@H](N)CCCNC(=N)N)C(=O)N[C@@H](CCCCN)C(=O)N[C@@H](Cc1ccccc1)C(N)=O [SS-31, D-Arg-2′,6′-Dmt-Lys-Phe-NH2] (H-[dR][Dmt]KF-NH2)?
Arterial PCO2 [2, 3]: 46 ± 1; Arterial PO2 [2, 3]: 75 ± 5 mm/Hg; Arterial pH [2, 3]: 7.41 ± 0.01; Systolic blood pressure [2, 3]: 108 ± 5 mm/Hg; Heart rate ([2]; rats at completion of 12 h MV, SS-31 3 mg/kg s.c. bolus + 0.05 mg/kg/hr i.v.): 347 ± 7 beats/min
